Measurements as given in the supplement of paper PMC10307832.

Columns and labels:
Assay in all cases: relative viability (nuclei count vs DMSO), 5 days (fraction); higher = more cells survive
VE-821 + Crizotinib = compound: CS(=O)(=O)c1ccc(-c2cnc(N)c(C(=O)Nc3ccccc3)n2)cc1 [VE-821] + C[C@@H](Oc1cc(-c2cnn(C3CCNCC3)c2)cnc1N)c1c(Cl)ccc(F)c1Cl [Crizotinib] (partner 1 µM)
Summary of the method: (§1)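 Lung cancer cell lines, seeded in 1536-well plates, were treated the following day by pin tool with a single drug or with five library-drug doses (not always all listed) in √10 steps on top of a fixed anchor-drug dose. Cells were fixed and nuclei stained in one step after 5 days, and nuclei were counted. Relative viability is the nuclei count for treated wells divided by that for vehicle wells, reported as medians of duplicate plates.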

VE-821 + Olaparib = compound: CS(=O)(=O)c1ccc(-c2cnc(N)c(C(=O)Nc3ccccc3)n2)cc1 [VE-821] + O=C(c1cc(Cc2n[nH]c(=O)c3ccccc23)ccc1F)N1CCN(C(=O)C2CC2)CC1 [Olaparib] (partner 8 µM)
Summary of the method: as §1

VE-821 + Alpelisib = compound: CS(=O)(=O)c1ccc(-c2cnc(N)c(C(=O)Nc3ccccc3)n2)cc1 [VE-821] + Cc1nc(NC(=O)N2CCC[C@H]2C(N)=O)sc1-c1ccnc(C(C)(C)C(F)(F)F)c1 [Alpelisib] (partner 2 µM)
Summary of the method: as §1

VE-821 + Linsitinib = compound: CS(=O)(=O)c1ccc(-c2cnc(N)c(C(=O)Nc3ccccc3)n2)cc1 [VE-821] + C[C@]1(O)C[C@@H](c2nc(-c3ccc4ccc(-c5ccccc5)nc4c3)c3c(N)nccn32)C1 [Linsitinib] (partner 1 µM)
Summary of the method: as §1

Cell Line	relative viability (VE-821 + Crizotinib; first compound 0.08 µM)	relative viability (VE-821 + Crizotinib; first compound 0.253 µM)	relative viability (VE-821 + Crizotinib; first compound 0.8 µM)	relative viability (VE-821 + Crizotinib; first compound 2.53 µM)	relative viability (VE-821 + Crizotinib; first compound 8 µM)	relative viability (VE-821 + Olaparib; first compound 0.08 µM)	relative viability (VE-821 + Olaparib; first compound 0.253 µM)	relative viability (VE-821 + Olaparib; first compound 0.8 µM)	relative viability (VE-821 + Olaparib; first compound 2.53 µM)	relative viability (VE-821 + Olaparib; first compound 8 µM)	relative viability (VE-821 + Alpelisib; first compound 0.08 µM)	relative viability (VE-821 + Alpelisib; first compound 0.253 µM)	relative viability (VE-821 + Alpelisib; first compound 0.8 µM)	relative viability (VE-821 + Alpelisib; first compound 2.53 µM)	relative viability (VE-821 + Alpelisib; first compound 8 µM)	relative viability (VE-821 + Linsitinib; first compound 0.08 µM)	relative viability (VE-821 + Linsitinib; first compound 0.253 µM)	relative viability (VE-821 + Linsitinib; first compound 0.8 µM)	relative viability (VE-821 + Linsitinib; first compound 2.53 µM)	relative viability (VE-821 + Linsitinib; first compound 8 µM)
201T	1.04	1.03	1.02	1.08	0.979	0.859	0.819	0.826	0.748	0.623	1.11	1.03	0.878	1.09	0.85	0.975	0.941	0.956	0.968	0.818
A549	0.896	0.656	0.607	0.689	0.271	0.431	0.291	0.195	0.262	0.207	0.995	0.746	0.624	0.872	0.548	0.623	0.597	0.43	0.599	0.406
A-427	0.907	0.821	0.785	0.811	0.384	0.797	0.71	0.618	0.556	0.389	1.01	1.03	1.08	1.12	0.706	1.18	1.12	1.06	1.08	0.894
ABC-1	1.18	1.1	0.904	0.777	0.58	0.776	0.873	0.755	0.869	0.757	1.21	0.854	0.91	1.03	0.904	0.819	0.699	0.567	0.798	0.423
BEN	0.952	0.847	0.688	0.835	0.796	1.17	1.01	0.902	0.768	1.08	1.09	1.01	0.877	0.968	0.976	0.967	0.871	0.793	0.911	0.753
CAL-12T	0.798	0.674	0.537	0.369	0.316	0.869	0.73	0.816	0.691	0.549	1.22	1.08	1.37	1.32	0.837	0.94	0.805	0.725	0.891	0.956
COR-L23	0.731	0.76	0.695	0.726	0.562	0.372	0.346	0.221	0.304	0.182	0.787	0.714	0.746	0.837	0.525	0.958	0.897	1.16	0.964	0.719
COR-L 105	1.03	0.678	0.582	0.546	0.385	0.708	0.638	0.434	0.561	0.484	1	1	0.674	0.891	0.58	0.944	0.885	0.75	0.776	0.496
Calu-6	0.97	0.844	0.795	0.684	0.466	0.626	0.597	0.566	0.386	0.226	0.988	0.896	0.939	0.972	0.66	1	0.839	0.83	1.13	0.942
ChaGo-K-1	1.18	1.18	1	1.17	0.989	0.449	0.396	0.36	0.345	0.283										
EBC-1	0.181	0.189	0.155	0.179	0.202	0.75	0.774	0.74	0.562	0.416	0.888	0.75	0.742	0.779	0.683	0.908	0.901	0.85	1.16	0.808
EKVX	1.25	0.93	0.849	0.958	0.878	0.863	0.837	0.813	0.783	0.736	0.977	0.842	0.535	0.8	0.61	1.2	0.893	0.643	0.932	0.681
EMC-BAC-2	0.899	0.763	0.737	0.731	0.651	0.606	0.495	0.559	0.46	0.383	0.877	0.782	0.721	0.75	0.757	0.881	0.817	0.849	0.852	0.841
EPLC-272H	1.04	0.853	0.923	1.19	0.906	0.949	0.829	0.504	0.608	0.255	0.998	0.858	0.694	1.23	0.807	1.28	0.928	1.22	1.6	1.11
H3255	1.05	0.981	0.761	1.03	0.847	0.576	0.532	0.553	0.535	0.493	0.821	0.76	0.665	0.844	0.66	1.08	1.05	0.914	1.06	0.982
HARA	1.36	1.07	1.06	1.07	0.903	0.695	0.798	0.583	0.387	0.391	1.05	0.912	0.688	0.926	0.704	1.03	1.02	0.931	0.972	0.702
HCC-15	0.989	0.817	0.906	0.982	0.854	0.77	0.703	0.894	0.735	0.558	0.976	0.923	1.01	0.999	0.961	1.01	0.816	0.954	0.961	0.889
HCC-44	0.846	0.779	0.847	1.03	0.923	0.939	0.978	0.971	0.986	0.957	0.83	0.807	0.717	1.03	0.885	0.72	0.685	0.485	0.81	0.769
HCC-78	0.344	0.368	0.338	0.352	0.336	0.8	0.931	0.772	0.946	0.736	0.448	0.289	0.217	0.394	0.229	0.626	0.575	0.404	0.477	0.328

Cell Line	relative viability (VE-821 + Crizotinib; first compound 0.08 µM)	relative viability (VE-821 + Crizotinib; first compound 0.253 µM)	relative viability (VE-821 + Crizotinib; first compound 0.8 µM)	relative viability (VE-821 + Crizotinib; first compound 2.53 µM)	relative viability (VE-821 + Crizotinib; first compound 8 µM)	relative viability (VE-821 + Olaparib; first compound 0.08 µM)	relative viability (VE-821 + Olaparib; first compound 0.253 µM)	relative viability (VE-821 + Olaparib; first compound 0.8 µM)	relative viability (VE-821 + Olaparib; first compound 2.53 µM)	relative viability (VE-821 + Olaparib; first compound 8 µM)	relative viability (VE-821 + Alpelisib; first compound 0.08 µM)	relative viability (VE-821 + Alpelisib; first compound 0.253 µM)	relative viability (VE-821 + Alpelisib; first compound 0.8 µM)	relative viability (VE-821 + Alpelisib; first compound 2.53 µM)	relative viability (VE-821 + Alpelisib; first compound 8 µM)	relative viability (VE-821 + Linsitinib; first compound 0.08 µM)	relative viability (VE-821 + Linsitinib; first compound 0.253 µM)	relative viability (VE-821 + Linsitinib; first compound 0.8 µM)	relative viability (VE-821 + Linsitinib; first compound 2.53 µM)	relative viability (VE-821 + Linsitinib; first compound 8 µM)
HCC-366	0.792	0.428	0.403	0.337	0.045	0.654	0.342	0.19	0.0816	0.0499	0.654	0.419	0.123	0.213	0.0456	0.907	0.49	0.329	0.477	0.0616
HCC-827	0.989	1.01	0.94	1.02	0.898	0.735	0.753	0.136	0.734	0.711	1.05	0.972	0.784	1.07	0.825	0.932	1.01	0.909	0.934	0.976
HOP-62	0.955	0.885	0.754	1.03	0.902	0.375	0.477	0.418	0.212	0.252	1.09	0.646	0.723	0.928	0.93	0.838	0.911	0.933	1.23	0.873
IA-LM	1.04	0.618	0.875	1.14	0.616	0.852	0.734	0.832	0.801	0.36	0.905	0.475	0.797	1.04	0.738	0.836	0.54	0.741	0.903	0.636
LC-2-ad	0.516	0.424	0.526	0.518	0.499	0.714	0.709	0.725	0.592	0.519	0.991	0.846	0.926	1.01	0.686	0.88	0.764	0.821	0.925	0.661
LCLC-97TM1	0.537	0.381	0.413	0.632	0.174	0.483	0.373	0.418	0.359	0.166	0.315	0.244	0.22	0.292	0.222	0.186	0.2	0.19	0.183	0.191
LCLC-103H	1.08	1	0.998	1.08	1.1	0.769	0.76	0.71	0.76	0.663	1	0.95	0.85	0.966	0.986	1.23	1.1	0.999	1.34	1.1
LK-2	0.223	0.228	0.248	0.249	0.212	0.991	0.826	0.879	0.916	0.69	1.14	1.17	0.925	1.29	0.672	0.583	0.595	0.662	0.705	0.501
LOU-NH91	0.74	0.772	0.757	0.754	0.752	0.988	0.921	0.924	0.916	0.847	0.747	0.738	0.66	0.75	0.702	0.94	0.949	0.989	1.04	0.898
NCI-H522						0.627	0.698	0.645	0.657	0.594										
NCI-H1395						0.422	0.49	0.481	0.441	0.438	1.46	1.08	0.705	1.14	0.659	1.07	1.01	0.893	1.05	0.683
NCI-H1563	1.02	0.781	0.751	0.694	0.695						0.896	0.933	0.739	0.805	0.797	1.26	1.17	0.914	1.08	1.05
NCI-H1648						1.14		0.909	0.922	0.468										
NCI-H1650	1.03	1.08	0.896	0.873	0.478	0.686	0.83	0.542	0.796	0.429										
NCI-H1793						1	0.878		0.763	0.547	0.689	0.681	0.497	0.727	0.687	1.01	0.846	0.459	1.01	0.698
NCI-H2170	1.29	1.26	1.11	0.655	0.776	0.656	0.487	0.395	0.276	0.21	0.979	0.808	0.624	0.777	0.543					
NCI-H2342						0.474	0.469	0.379	0.521	0.431										
SW 900						0.936	0.941	0.768	0.786	0.606										
